Test results as given in ChEMBL document CHEMBL4425142, “Inhibitors of diacylglycerol lipases in neurodegenerative and metabolic disorders” (Bioorg Med Chem Lett, 2016).

What was measured:
[1] = biological target: T1, Diacylglycerol lipase-alpha (Homo sapiens, UniProt Q9Y4D2); assay: Inhibition of human DAGLalpha expressed in HEK293T cell membrane fractions using PNP butyrate as substrate preincubated for 20 mins followed by substrate addition by colorimetric surrogate substrate assay
T1 sequence (Q9Y4D2 whole entry): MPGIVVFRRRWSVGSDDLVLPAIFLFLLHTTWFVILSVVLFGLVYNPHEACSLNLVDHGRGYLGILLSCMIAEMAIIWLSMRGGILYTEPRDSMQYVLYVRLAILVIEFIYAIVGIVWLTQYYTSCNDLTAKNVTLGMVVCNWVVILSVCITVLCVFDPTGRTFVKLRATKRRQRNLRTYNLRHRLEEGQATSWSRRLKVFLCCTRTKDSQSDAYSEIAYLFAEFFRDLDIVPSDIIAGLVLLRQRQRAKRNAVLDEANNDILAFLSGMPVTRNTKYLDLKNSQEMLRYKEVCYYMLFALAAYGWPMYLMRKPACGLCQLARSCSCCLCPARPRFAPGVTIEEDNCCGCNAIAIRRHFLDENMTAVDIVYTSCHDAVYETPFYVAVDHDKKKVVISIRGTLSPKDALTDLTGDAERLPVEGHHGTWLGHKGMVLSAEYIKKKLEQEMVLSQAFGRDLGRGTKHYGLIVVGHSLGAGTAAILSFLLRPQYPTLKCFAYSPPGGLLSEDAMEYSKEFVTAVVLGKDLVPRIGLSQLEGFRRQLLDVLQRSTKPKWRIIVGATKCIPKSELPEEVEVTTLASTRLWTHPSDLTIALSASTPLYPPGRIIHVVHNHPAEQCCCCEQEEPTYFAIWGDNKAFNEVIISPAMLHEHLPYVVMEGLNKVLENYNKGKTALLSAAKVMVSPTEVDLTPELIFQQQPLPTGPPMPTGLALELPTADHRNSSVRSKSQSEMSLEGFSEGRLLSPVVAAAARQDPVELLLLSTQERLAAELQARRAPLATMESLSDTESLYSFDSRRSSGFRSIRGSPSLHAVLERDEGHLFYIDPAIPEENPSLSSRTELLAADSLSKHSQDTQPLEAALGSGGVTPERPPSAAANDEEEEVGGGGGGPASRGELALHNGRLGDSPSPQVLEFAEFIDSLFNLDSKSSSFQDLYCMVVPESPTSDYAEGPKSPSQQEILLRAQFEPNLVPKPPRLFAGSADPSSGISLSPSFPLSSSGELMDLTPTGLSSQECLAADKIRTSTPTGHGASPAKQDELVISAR

[2] = biological target: T2, Diacylglycerol lipase-alpha (Mus musculus, UniProt Q6WQJ1); assay: Inhibition of DAGLalpha in mouse brain proteome pre-incubated for 30 mins followed by ABP MB064 probe addition for 15 mins by ABPP assay; format: subcellular
T2 sequence (Q6WQJ1 whole entry): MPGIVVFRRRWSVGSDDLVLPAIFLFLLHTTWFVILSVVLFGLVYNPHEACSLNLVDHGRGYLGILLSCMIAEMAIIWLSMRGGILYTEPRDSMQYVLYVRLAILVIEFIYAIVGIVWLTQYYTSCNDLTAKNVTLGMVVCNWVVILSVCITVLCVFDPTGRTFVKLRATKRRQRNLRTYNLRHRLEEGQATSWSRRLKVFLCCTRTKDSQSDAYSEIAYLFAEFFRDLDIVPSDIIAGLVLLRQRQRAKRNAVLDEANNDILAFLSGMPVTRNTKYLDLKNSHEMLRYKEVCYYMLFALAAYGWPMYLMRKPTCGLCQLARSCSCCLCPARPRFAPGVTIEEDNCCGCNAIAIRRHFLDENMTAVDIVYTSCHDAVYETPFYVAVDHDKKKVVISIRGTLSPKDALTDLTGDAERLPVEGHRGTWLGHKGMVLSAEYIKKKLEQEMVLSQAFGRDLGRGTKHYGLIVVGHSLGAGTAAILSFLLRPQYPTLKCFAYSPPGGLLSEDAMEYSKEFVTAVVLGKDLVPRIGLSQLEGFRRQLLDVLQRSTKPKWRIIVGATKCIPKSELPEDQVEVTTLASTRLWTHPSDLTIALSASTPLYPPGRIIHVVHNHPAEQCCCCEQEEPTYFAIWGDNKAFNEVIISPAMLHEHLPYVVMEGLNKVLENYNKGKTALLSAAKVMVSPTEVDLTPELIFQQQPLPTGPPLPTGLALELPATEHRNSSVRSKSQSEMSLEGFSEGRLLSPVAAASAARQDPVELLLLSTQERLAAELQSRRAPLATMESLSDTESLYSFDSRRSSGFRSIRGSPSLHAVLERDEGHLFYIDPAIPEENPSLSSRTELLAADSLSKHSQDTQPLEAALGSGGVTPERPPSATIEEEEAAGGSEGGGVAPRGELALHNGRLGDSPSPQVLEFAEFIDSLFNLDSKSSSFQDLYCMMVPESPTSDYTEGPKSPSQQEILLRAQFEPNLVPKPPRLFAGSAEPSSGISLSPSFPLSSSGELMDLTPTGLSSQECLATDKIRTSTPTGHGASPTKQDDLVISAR

[3] = biological target: T1, Diacylglycerol lipase-alpha; assay: Inhibition human DAGLalpha expressed in HEK293T cell membrane fractions using DAG as substrate preincubated for 30 mins followed by ABP HT01 probe addition measured after 30 mins in presence of probe by gel-based ABPP competition assay
[4] = biological target: T3, Diacylglycerol lipase-beta (Mus musculus, UniProt Q91WC9); assay: Inhibition of mouse DAGLbeta expressed in HEK293T cell membranes using SAG as substrate preincubated for 20 mins followed by substrate addition by enzyme coupled natural substrate assay
T3 sequence (Q91WC9 whole entry): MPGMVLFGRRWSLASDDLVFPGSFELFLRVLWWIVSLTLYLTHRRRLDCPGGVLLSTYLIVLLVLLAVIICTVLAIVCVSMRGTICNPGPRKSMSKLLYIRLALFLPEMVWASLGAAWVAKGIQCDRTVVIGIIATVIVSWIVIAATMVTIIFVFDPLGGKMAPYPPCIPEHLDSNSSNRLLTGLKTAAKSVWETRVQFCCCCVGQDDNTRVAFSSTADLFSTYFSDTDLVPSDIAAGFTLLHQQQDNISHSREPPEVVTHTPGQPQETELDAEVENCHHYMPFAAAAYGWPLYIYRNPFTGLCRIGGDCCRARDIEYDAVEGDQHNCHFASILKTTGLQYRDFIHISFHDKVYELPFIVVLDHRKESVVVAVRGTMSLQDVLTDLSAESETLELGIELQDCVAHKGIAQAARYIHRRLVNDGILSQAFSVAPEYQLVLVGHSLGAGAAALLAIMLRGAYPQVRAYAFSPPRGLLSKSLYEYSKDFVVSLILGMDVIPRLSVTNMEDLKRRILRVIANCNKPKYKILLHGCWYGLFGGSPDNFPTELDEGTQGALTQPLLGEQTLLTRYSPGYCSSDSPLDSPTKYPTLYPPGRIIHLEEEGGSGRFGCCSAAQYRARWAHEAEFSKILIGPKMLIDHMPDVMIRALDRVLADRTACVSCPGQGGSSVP

[5] = biological target: T3, Diacylglycerol lipase-beta; assay: Inhibition mouse DAGLbeta expressed in HEK293T cell membrane fractions using DAG as substrate preincubated for 30 mins followed by ABP HT01 probe addition measured after 30 mins in presence of probe by gel-based ABPP competition assay
[6] = biological target: T1, Diacylglycerol lipase-alpha; assay: Inhibition of human GST-tagged DAGLalpha expressed in HEK293F cell membranes using 1-stearoyl-2-arachidonoyl-sn-glycerol as substrate preincubated for 20 mins followed by substrate addition by enzyme coupled natural substrate assay
[7] = biological target: T3, Diacylglycerol lipase-beta; assay: Inhibition of V-tagged mouse DAGLbeta expressed in […] cell membrane fractions using SAG as substrate assessed as accumulation of 2-AG preincubated for 30 mins followed by substrate addition measured after 30 mins by LC-MS natural substrate assay
[8] = biological target: T1, Diacylglycerol lipase-alpha; assay: Inhibition of human C-terminal HA-tagged DAGLalpha expressed in HEK293F cell membrane fractions using PNP butyrate as substrate by colorimetric surrogate substrate assay
[9] = biological target: T1, Diacylglycerol lipase-alpha; assay: Inhibition of human C-terminal HA-tagged DAGLalpha expressed in HEK293F cell membrane fractions using DiFMU-octanoate as substrate by fluorogenic surrogate substrate assay
[10] = biological target: T4, Diacylglycerol lipase-beta (Homo sapiens, UniProt Q8NCG7); assay: Inhibition of human GST-tagged DAGLbeta catalytic domain expressed in HEK293F cell membranes using EnzChek as substrate preincubated for 5 mins followed by substrate addition by fluorogenic surrogate substrate assay
T4 sequence (Q8NCG7 whole entry): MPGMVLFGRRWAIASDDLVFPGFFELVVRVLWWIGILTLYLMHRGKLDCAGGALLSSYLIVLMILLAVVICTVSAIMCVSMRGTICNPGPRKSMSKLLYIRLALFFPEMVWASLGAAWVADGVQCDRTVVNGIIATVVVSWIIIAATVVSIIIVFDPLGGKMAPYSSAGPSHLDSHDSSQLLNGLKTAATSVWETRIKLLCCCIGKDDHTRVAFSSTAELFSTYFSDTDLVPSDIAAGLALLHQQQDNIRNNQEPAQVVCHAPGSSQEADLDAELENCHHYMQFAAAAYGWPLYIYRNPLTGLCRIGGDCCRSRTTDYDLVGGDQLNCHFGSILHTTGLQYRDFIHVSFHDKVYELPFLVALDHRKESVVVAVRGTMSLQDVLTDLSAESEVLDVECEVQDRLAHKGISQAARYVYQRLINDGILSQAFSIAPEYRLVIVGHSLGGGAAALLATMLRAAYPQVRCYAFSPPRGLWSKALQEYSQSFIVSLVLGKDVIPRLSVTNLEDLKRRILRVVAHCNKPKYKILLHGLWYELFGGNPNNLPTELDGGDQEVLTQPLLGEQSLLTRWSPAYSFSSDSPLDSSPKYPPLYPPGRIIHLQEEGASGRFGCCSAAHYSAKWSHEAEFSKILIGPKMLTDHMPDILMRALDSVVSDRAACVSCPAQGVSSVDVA

Cannabinoid receptor 1 = Cannabinoid receptor 1 (Homo sapiens, UniProt P21554); assay: Antagonist activity at CBR1 (unknown origin)
Chain of Cannabinoid receptor 1 (P21554 whole entry): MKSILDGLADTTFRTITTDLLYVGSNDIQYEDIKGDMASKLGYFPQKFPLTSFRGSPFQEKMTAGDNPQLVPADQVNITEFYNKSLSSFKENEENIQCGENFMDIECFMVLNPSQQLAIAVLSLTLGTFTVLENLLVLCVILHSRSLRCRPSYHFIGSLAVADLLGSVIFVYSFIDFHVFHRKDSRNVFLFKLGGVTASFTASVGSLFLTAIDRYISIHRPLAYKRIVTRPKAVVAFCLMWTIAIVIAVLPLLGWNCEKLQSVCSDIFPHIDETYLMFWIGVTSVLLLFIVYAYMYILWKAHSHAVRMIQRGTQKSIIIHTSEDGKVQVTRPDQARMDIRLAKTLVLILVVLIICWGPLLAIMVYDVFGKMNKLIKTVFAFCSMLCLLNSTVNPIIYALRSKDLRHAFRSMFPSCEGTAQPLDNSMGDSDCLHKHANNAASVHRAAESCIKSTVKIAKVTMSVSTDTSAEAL

[11] = biological target: T3, Diacylglycerol lipase-beta; assay: Inhibition of full length 3' FLAG-tagged mouse DAGLbeta expressed in African green monkey COS7 cells using sn-1-stearoyl-[14C]-arachidonoyl-glycerol as substrate preincubated for 15 mins followed by substrate addition measured after 30 mins by radiometric natural substrate assay; format: cell-based

Row | SMILES | IC50 [2] | IC50 [3] | IC50 [5] | further results
1 | Cc1ccc(-c2cnc3nc(C(=O)CCCCCc4ccccc4)oc3c2)cc1 | 25.1 nM |  |  | IC50 [1]: 3.16 nM
2 | CC(C)(C)OC(=O)N1CCN(C(=O)n2cc(-c3ccc(OC(F)(F)F)cc3)nn2)C(Cc2ccccc2)C1 (stereo not drawn) |  | 0.501 nM | 2.51 nM | IC50 [4]: 7.94 nM
3 | CC1(C)CCc2cc(S(=O)(=O)N(CC(=O)O)Cc3ccc(Oc4ccccc4)cc3)ccc2O1 | 126 nM |  |  | IC50 [6]: 1000 nM
4 | O=C(CCCCCc1ccccc1)c1nc2ncccc2o1 | 501 nM |  |  | 
5 | COc1ccccc1-c1ccc(-c2cn(C(=O)N3CCCCC3Cc3ccccc3)nn2)cc1 (stereo not drawn) |  | 126 nM | 63.1 nM | IC50 [7]: 79.4 nM
6 | O=C(NCCCCCCNC(=O)ON=C1CCCCC1)ON=C1CCCCC1 |  |  |  | IC50 [8]: 5010 nM; IC50 [9]: 25100 nM
7 | CCCCCCCCCCCC(C[C@@H]1OC(=O)[C@H]1CCCCCC)OC(=O)[C@@H](NC=O)C(C)CC (stereo partly drawn) |  |  |  | IC50 [10]: 6.31 nM; Ki (Cannabinoid receptor 1): 6000 nM
8 | O=C(N1CCCCC1Cc1ccccc1)n1cc(-c2ccc(-c3ccccc3)cc2)nn1 (stereo not drawn) |  | 2510 nM | 39.8 nM | IC50 [7]: 79.4 nM; IC50 [6]: 25.1 nM
9 | C#CCO[C@@H]1CC[C@H](Cc2ccccc2)N(C(=O)n2ncc(C(O)(c3ccc(F)cc3)c3ccc(F)cc3)n2)C1 |  | 1.26 nM | 5.01 nM | 
10 | CCCCCCCCCCCC(C[C@@H]1OC(=O)[C@H]1CCCCCC)OC(=O)[C@H](CC(C)C)NC=O (stereo partly drawn) |  |  | 2000 nM | IC50 [11]: 100 nM
